# According to US20120034193A1, “TREATMENT OF NEUROTROPHIC FACTOR MEDIATED DISORDERS” (priority 2009, published 2012):
# How the values were obtained:
# [1] = biological target: T1, Histamine H1 (Cavia porcellus, UniProt P31389); assay: Receptor binding assay; parameters: species or system Guinea Pig; details: sarsasapogenin 10 μM
# T1 construct: host or cells: tissue or cell homogenate, not specified
# Procedure: (§1) The receptor binding was investigated using the following method: Sarsasapogenin was incubated with tissue or cell homogenate that expressed the receptor of interest and a known concentration a radiolabelled compound with affinity for the receptor of interest. After the incubation period the non-bound radiolabelled compound was removed and the amount of specific binding was quantified. The amount of specific binding in the presence and absence of sarsasapogenin were compared and the percent inhibition of the binding of the radiolabelled compound by sarsasapogenin was calculated. The source of the receptor, the incubation conditions, the radiolabelled compound used varied depending on each specific assay.
# [2] = tested on: Calcium Channel L-Type, Benzothiazepine; assay: Binding assay; parameters: species or system Rat; details: smilagenin 1 μM
# Procedure: as §1
# (§2) Using the same methods as described above, the binding of smilagenin (1 μM) to the receptors listed in Table 2 below, and the effect of smilagenin on the activity of the enzymes listed in Table 2 below, were investigated.
# [3] = tested on: Calcium Channel L-Type, Phenylalkylamine; assay: Binding assay; parameters: species or system Rat; details: smilagenin 1 μM
# Procedure: as §1, §2
# [4] = tested on: GABAA Chloride Channel, TBOB; assay: Binding assay; parameters: species or system Rat; details: smilagenin 1 μM
# Procedure: as §1, §2
# [5] = tested on: GABAA Flunitrazepam, Central; assay: Binding assay; parameters: species or system Rat; details: smilagenin 1 μM
# Procedure: as §1, §2
# [6] = tested on: Gabapentin; assay: Binding assay; parameters: species or system Rat; details: smilagenin 1 μM
# Procedure: as §1, §2
# [7] = tested on: Glutamate, AMPA; assay: Binding assay; parameters: species or system Rat; details: smilagenin 1 μM
# Procedure: as §1, §2
# [8] = tested on: Glutamate, Kainate; assay: Binding assay; parameters: species or system Rat; details: smilagenin 1 μM
# Procedure: as §1, §2
# [9] = tested on: Imidazoline I2, central; assay: Binding assay; parameters: species or system Rat; details: smilagenin 1 μM
# Procedure: as §1, §2
# [10] = tested on: Inositol trisphosphate IP3; assay: Binding assay; parameters: species or system Rat; details: smilagenin 1 μM
# Procedure: as §1, §2
# [11] = tested on: Potassium Channel [KA]; assay: Binding assay; parameters: species or system Rat; details: smilagenin 1 μM
# Procedure: as §1, §2
# [12] = tested on: Purinergic P2Y; assay: Binding assay; parameters: species or system Rat; details: smilagenin 1 μM
# Procedure: as §1, §2
# [13] = tested on: Rolipram; assay: Binding assay; parameters: species or system Rat; details: smilagenin 1 μM
# Procedure: as §1, §2
# [14] = tested on: Sodium Channel, Site 2; assay: Binding assay; parameters: species or system Rat; details: smilagenin 1 μM
# Procedure: as §1, §2
# [15] = tested on: Thyroid Hormone; assay: Binding assay; parameters: species or system Rat; details: smilagenin 1 μM
# Procedure: as §1, §2
# [16] = tested on: Transporter, GABA; assay: Binding assay; parameters: species or system Rat; details: smilagenin 1 μM
# Procedure: as §1, §2
# [17] = biological target: Nicotinic Acetylcholine α1, Bungarotoxin (Homo sapiens, UniProt P02708+P07510+Q07001); assay: Binding assay; details: smilagenin 1 μM
# Nicotinic Acetylcholine α1, Bungarotoxin, sequence (P07510 23-517): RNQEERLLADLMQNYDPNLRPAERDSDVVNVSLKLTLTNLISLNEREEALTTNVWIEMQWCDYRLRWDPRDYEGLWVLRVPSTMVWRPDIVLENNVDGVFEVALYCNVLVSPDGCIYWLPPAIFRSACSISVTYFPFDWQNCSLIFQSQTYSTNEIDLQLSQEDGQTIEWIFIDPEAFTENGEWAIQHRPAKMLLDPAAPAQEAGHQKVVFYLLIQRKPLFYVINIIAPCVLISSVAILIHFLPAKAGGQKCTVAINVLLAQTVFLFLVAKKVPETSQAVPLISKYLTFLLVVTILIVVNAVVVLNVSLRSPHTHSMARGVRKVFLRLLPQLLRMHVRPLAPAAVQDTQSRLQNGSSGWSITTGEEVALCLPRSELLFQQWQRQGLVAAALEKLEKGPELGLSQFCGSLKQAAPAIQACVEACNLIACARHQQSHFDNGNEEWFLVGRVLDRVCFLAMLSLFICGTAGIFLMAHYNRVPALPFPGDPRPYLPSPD
# Nicotinic Acetylcholine α1, Bungarotoxin, sequence (P11230 24-501, further chain): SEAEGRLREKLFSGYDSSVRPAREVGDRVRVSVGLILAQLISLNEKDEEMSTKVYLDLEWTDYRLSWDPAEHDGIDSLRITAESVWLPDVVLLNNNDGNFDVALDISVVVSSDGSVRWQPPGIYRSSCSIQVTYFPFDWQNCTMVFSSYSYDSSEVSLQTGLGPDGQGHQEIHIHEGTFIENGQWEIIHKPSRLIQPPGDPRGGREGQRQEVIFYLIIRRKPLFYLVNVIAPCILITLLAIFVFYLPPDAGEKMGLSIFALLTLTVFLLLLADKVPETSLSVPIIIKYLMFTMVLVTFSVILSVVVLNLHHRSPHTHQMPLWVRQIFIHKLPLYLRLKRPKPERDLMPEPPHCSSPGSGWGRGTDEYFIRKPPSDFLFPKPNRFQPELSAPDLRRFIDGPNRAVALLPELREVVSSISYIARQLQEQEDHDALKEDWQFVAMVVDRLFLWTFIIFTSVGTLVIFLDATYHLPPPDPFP
# Nicotinic Acetylcholine α1, Bungarotoxin, sequence (Q07001 22-517): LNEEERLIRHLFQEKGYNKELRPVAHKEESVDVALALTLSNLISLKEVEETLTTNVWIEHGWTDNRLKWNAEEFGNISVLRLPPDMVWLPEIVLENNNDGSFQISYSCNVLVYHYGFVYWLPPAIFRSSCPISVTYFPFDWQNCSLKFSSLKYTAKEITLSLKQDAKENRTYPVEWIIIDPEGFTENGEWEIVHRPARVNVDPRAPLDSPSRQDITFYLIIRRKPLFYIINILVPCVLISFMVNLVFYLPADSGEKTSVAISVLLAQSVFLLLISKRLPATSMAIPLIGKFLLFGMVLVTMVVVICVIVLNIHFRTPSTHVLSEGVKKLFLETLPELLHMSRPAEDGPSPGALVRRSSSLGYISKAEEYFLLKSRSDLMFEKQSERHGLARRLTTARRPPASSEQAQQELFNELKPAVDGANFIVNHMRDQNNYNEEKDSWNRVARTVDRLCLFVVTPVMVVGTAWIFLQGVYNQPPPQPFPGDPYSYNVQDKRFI
# Nicotinic Acetylcholine α1, Bungarotoxin, sequence (P02708 21-457): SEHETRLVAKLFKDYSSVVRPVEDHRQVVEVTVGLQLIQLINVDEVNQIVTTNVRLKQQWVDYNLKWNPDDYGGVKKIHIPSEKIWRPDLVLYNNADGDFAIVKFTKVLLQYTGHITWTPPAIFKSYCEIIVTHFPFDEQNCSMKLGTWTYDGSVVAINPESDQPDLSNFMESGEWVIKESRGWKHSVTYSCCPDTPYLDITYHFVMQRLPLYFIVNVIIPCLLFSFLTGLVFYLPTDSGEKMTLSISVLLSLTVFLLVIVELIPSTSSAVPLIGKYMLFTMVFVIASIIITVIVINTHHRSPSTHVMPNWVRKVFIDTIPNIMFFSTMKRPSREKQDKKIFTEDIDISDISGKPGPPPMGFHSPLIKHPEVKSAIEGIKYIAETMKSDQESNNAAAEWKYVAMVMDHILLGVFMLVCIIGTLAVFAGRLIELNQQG
# [18] = tested on: Transporter, Monoamine; assay: Binding assay; parameters: species or system Rabbit; details: smilagenin 1 μM
# Procedure: as §1, §2
# [19] = Long term oral toxicity study, mice; format: in vivo; details: high doses, up to 52 weeks in mice
# [20] = tested on: BDNF; assay: Unbound BDNF in the putamen of MPTP-lesioned macaques; format: in vivo, Macaca fascicularis; details: smilagenin 20 mg/kg/day p.o., 18 weeks; control 257.58, MPTP 388.73
# Procedure: Nineteen female cynomolgus monkeys (Macaca fascicularis, 3.0-4.5 kg, 4-6 years old) were acclimatised to the experimental setting and procedures for 3 months and baseline behaviour was assessed in all animals. Fourteen female macaques received MPTP (0.2 mg/kg/day, s.c.) until marked, stable, parkinsonian symptoms developed. Animals (n=7/group) were randomly assigned to two groups; smilagenin (20 mg/kg/day, p.o.) or vehicle control (HPMC, 0.5% w/v containing Tween 80, 0.2% v/v).
# Assessments of parkinsonian disability were made after MPTP administration and following 18 weeks of smilagenin or vehicle administration. Parkinsonian disability was evaluated by post hoc analysis of DVD-recordings by a neurologist blinded to the treatment. At the end of the study the brains were removed and the levels of unbound GDNF and BDNF in the putamen were measured using Multiplex ELISA/Aushon assays. The MPTP treated macaques used in this experiment thus provide an accepted model for Parkinson's disease and similar motor-sensory neurodegenerative conditions.
# T1 sequence (P31389 whole entry): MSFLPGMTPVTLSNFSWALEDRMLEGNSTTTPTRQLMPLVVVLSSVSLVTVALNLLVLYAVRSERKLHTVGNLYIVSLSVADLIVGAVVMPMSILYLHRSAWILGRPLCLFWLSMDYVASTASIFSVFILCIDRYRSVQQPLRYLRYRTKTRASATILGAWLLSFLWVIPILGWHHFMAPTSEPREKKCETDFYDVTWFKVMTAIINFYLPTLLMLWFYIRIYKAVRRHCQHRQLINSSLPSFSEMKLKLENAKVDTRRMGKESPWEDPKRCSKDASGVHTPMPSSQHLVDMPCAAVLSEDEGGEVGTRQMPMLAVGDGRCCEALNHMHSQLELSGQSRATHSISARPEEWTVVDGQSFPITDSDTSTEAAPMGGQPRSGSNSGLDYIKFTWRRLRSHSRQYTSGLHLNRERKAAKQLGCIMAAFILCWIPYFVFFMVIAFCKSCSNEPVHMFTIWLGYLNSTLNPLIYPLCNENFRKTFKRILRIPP
Structure (SMILES),Effect (%) [1],Effect (%) [2],Effect (%) [3],Effect (%) [4],Effect (%) [5],Effect (%) [6],Effect (%) [7],Effect (%) [8],Effect (%) [9],Effect (%) [10],Effect (%) [11],Effect (%) [12],Effect (%) [13],Effect (%) [14],Effect (%) [15],Effect (%) [16],Effect (%) [17],Effect (%) [18],Long term toxicity [19],Mean ± s.e.mean of unbound BDNF level in the putamen (pg/mg protein) [20]
"C[C@H]1CC[C@@]2(OC1)O[C@H]1C[C@H]3[C@@H]4CC[C@@H]5C[C@@H](O)CC[C@]5(C)[C@H]4CC[C@]3(C)[C@H]1[C@@H]2C [Sarsasapogenin, sarsasapogenin]",NS (NS = No significant response. Significance was taken as ≧30% stimulation or inhibition),–,–,–,–,–,–,–,–,–,–,–,–,–,–,–,–,–,–,–
"C[C@@H]1CC[C@@]2(OC1)O[C@H]1C[C@H]3[C@@H]4CC[C@@H]5C[C@@H](O)CC[C@]5(C)[C@H]4CC[C@]3(C)[C@H]1[C@@H]2C [Smilagenin, smilagenin]",–,NS (NS = No significant response. Significance was taken as ≧30% stimulation or inhibition),NS (NS = No significant response. Significance was taken as ≧30% stimulation or inhibition),NS (NS = No significant response. Significance was taken as ≧30% stimulation or inhibition),NS (NS = No significant response. Significance was taken as ≧30% stimulation or inhibition),NS (NS = No significant response. Significance was taken as ≧30% stimulation or inhibition),NS (NS = No significant response. Significance was taken as ≧30% stimulation or inhibition),NS (NS = No significant response. Significance was taken as ≧30% stimulation or inhibition),NS (NS = No significant response. Significance was taken as ≧30% stimulation or inhibition),NS (NS = No significant response. Significance was taken as ≧30% stimulation or inhibition),NS (NS = No significant response. Significance was taken as ≧30% stimulation or inhibition),NS (NS = No significant response. Significance was taken as ≧30% stimulation or inhibition),NS (NS = No significant response. Significance was taken as ≧30% stimulation or inhibition),NS (NS = No significant response. Significance was taken as ≧30% stimulation or inhibition),NS (NS = No significant response. Significance was taken as ≧30% stimulation or inhibition),NS (NS = No significant response. Significance was taken as ≧30% stimulation or inhibition),NS (NS = No significant response. Significance was taken as ≧30% stimulation or inhibition),NS (NS = No significant response. Significance was taken as ≧30% stimulation or inhibition),without showing any signs of toxicity or adverse events,208.27 ± 36.58 pg/mg protein
